Assay results from patent US20110224079A1, “SPIROHETEROCYCLIC N-OXYAMIDES AS PESTICIDES” (SYNGENTA CROP PROTECTION LLC, priority 2008, published 2011).

Legend:
[1] = tested on: Bemisia tabaci (tobacco white fly); assay: Example B7: activity against Bemisia tabaci, sprayed bean plants (larvicide, contact/feeding); format: in vivo; conditions: 504 h, bean plants with N-2 nymphs sprayed, three weeks, read-out: activity (efficacy, number of emerged adults)
Protocol: Activity Against Bemisia tabaci (Tobacco White Fly)
(Larvicide, Contact/Feeding)
Bean plants are infested with 20-30 adults that were removed after a 4 day egg-laying period. After another 7 days, bean plants with hatched nymphs (N-2) are treated (2 replicates) with the test solutions in a spray chamber. Three weeks later, samples are checked for number of emerged adults. Efficacy was calculated by comparing number of emerged adults in treated and non treated samples.

[2] = tested on: Aphis Craccivora (cowpea aphid); assay: Example B9: activity against Aphis craccivora, sprayed pea seedlings (contact/feeding); format: in vivo; conditions: 144 h, infested pea seedlings sprayed, 6 days
Excerpt: (§1) Activity Against Aphis Craccivora (Cowpea Aphid)
(Mixed Population, Contact/Feeding)
6 days after treatment, samples are checked for mortality.

[3] = tested on: Nilaparvata lugens (brown rice planthopper); assay: Example B8: activity against Nilaparvata lugens, sprayed rice seedlings (larvicide, feeding/contact); conditions: in Oryza sativa, read-out: activity (mortality, growth regulation, effects on F1 generation)
[4] = tested on: Myzus persicae (green peach aphid); assay: Example B13: drench activity against Myzus persicae, pea seedlings in field soil; conditions: 168 h, read-out: drench activity (mortality)
[5] = tested on: Myzus persicae (green peach aphid); assay: Example B1: activity against Myzus persicae, sprayed sunflower leaf discs (feeding/residual contact, preventive); conditions: foliar, 144 h, read-out: activity (mortality)
[6] = tested on: Aphis Craccivora (cowpea aphid); assay: Example B10: activity against Aphis craccivora, pea seedling roots in test solution (systemic/feeding); format: in vivo; conditions: 144 h, roots of infested pea seedlings in test solution, 6 days
Excerpt: as §1
(Mixed Population, Systemic/Feeding)

[7] = tested on: Myzus persicae (green peach aphid); assay: Example B2: activity against Myzus persicae, pea seedling roots in test solution (systemic/feeding, curative); conditions: 144 h, read-out: activity (mortality)
[8] = tested on: Plutella xylostella (diamond back moth); assay: Example B5: activity against Plutella xylostella, artificial diet in microtiter plate (larvicide, preventive); format: in vivo; conditions: 120 h, L2 larvae, 5 days, read-out: activity (larval mortality, antifeedant, growth regulation)
Protocol: Activity Against Plutella xylostella (Diamond Back Moth)
(Larvicide, Feeding/Residual Contact Activity, Preventive)
24-well microtiter plate (MTP) with artificial diet is treated with test solutions by pipetting. After drying, the MTP's are infested with larvae (L2)(10-15 per well). After an incubation period of 5 days, samples are checked for larval mortality, antifeedant and growth regulation.

[9] = tested on: Myzus persicae (green peach aphid); assay: Example B17: activity against Myzus persicae on sprayed pepper plants (feeding/residual contact); format: in vivo; conditions: 144 h, infested pepper plants sprayed, 6 days
[10] = tested on: Aphis Craccivora (cowpea aphid); assay: Example B11: translaminar activity against Aphis craccivora on French bean leaves; format: in vivo; conditions: 120 h, upper leaf side painted, aphids on lower side, 5 days
Protocol: Translaminar Activity Against Aphis Craccivora (Cowpea Aphid)
French bean leaves (Phaseolus vulgaris) are infested with about 20 mixed age individuals on the lower leaf side using clip cages. 1 day after the infestation, the upper side of the leaves is treated with the test solution by painting. 5 days later, samples are checked for mortality.

[11] = tested on: Tetranychus urticae (two-spotted spider mite); assay: Example B4: activity against Tetranychus urticae, sprayed bean leaf discs (feeding/residual contact, preventive); conditions: foliar, 192 h, read-out: activity (egg, larval and adult mortality)
[12] = tested on: Aonidiella Aurantii (red scale); assay: Example B12: activity against Aonidiella aurantii, dipped potato tubers; format: in vivo; conditions: 6-8 weeks after application, read-out: activity (number of crawlers of the next generation)
Excerpt: Activity Against Aonidiella Aurantii (Red Scale)
Treatment of potato tubers by dipping the in the test solution. One day later, tubers are infested with about 50 crawlers. 6-8 weeks after application samples are checked for the number of crawlers of the next generation (compared to the non treated samples).

[13] = tested on: Thrips tabaci (onion thrips); assay: Example B3: activity against Thrips tabaci, sprayed sunflower leaf discs (feeding/residual contact, preventive); format: in vivo; conditions: foliar, 144 h, mixed population, 6 days
Excerpt: Activity Against Thrips tabaci (Onion Thrips)
(Mixed Population, Feeding/Residual Contact Activity, Preventive)

Q: For `CCOC(=O)OC1=C(c2cc(C)ccc2C)C(=O)N(OCOC)C12CCN(OC)CC2` [P1.2, Carbonic acid 3-(2,5-dimethyl-phenyl)-8-methoxy-1-methoxy-methoxy-2-oxo-1,8-diaza-spiro[4.5]dec-3-en-4-yl ester ethyl ester], which pest or weed control at 200 ppm [1] is on record?
A: Its pest or weed control at 200 ppm is > 80%.

Q: What about the mortality at 400 ppm [2] of the same compound?
A: The mortality at 400 ppm was > 80%.

Q: And the mortality at 400 ppm [3]?
A: The mortality at 400 ppm was > 80%.

Q: What about the mortality at 25 ppm [4] of the same compound?
A: The mortality at 25 ppm was > 80%.

Q: What about the mortality at 400 ppm [5] of the same compound?
A: Its mortality at 400 ppm is > 80%.

Q: And the mortality at 400 ppm [6]?
A: The mortality at 400 ppm was > 80%.

Q: And the mortality at 400 ppm [7]?
A: Its mortality at 400 ppm is > 80%.

Q: And the mortality at 400 ppm [8]?
A: Its mortality at 400 ppm is > 80%.

Q: What about the mortality at 200 ppm [9] of the same compound?
A: The mortality at 200 ppm was ≥ 80%.

Q: And the mortality at 400 ppm [10]?
A: The mortality at 400 ppm was > 80%.

Q: With `C=CCON1C(=O)C(c2c(C)cc(C)cc2C)=C(OC(=O)OCC)C12CCN(OC)CC2` [P1.17] as the compound, how does the pest or weed control at 200 ppm [1] read?
A: The pest or weed control at 200 ppm was > 80%.

Q: What about the mortality at 400 ppm [2] of the same compound?
A: The mortality at 400 ppm was > 80%.

Q: And the mortality at 400 ppm [3]?
A: Its mortality at 400 ppm is > 80%.

Q: What about the mortality at 25 ppm [4] of the same compound?
A: The mortality at 25 ppm was > 80%.

Q: And the mortality at 400 ppm [6]?
A: The mortality at 400 ppm was > 80%.

Q: And the mortality at 400 ppm [7]?
A: Its mortality at 400 ppm is > 80%.

Q: What about the mortality at 400 ppm [11] of the same compound?
A: The mortality at 400 ppm was > 80%.

Q: And the mortality at 200 ppm [9]?
A: The mortality at 200 ppm was ≥ 80%.

Q: And the pest or weed control at 200 ppm [12]?
A: The pest or weed control at 200 ppm was > 80%.

Q: And the mortality at 400 ppm [10]?
A: The mortality at 400 ppm was > 80%.

Q: For `CCOC(=O)OC1=C(c2c(C)cccc2C)C(=O)N(OC)C12CCN(OC)CC2` [P1.74], which mortality at 400 ppm [13] is on record?
A: Its mortality at 400 ppm is > 80%.

Q: What about the mortality at 400 ppm [5] of the same compound?
A: The mortality at 400 ppm was > 80%.

Q: And the mortality at 400 ppm [7]?
A: Its mortality at 400 ppm is > 80%.

Q: What about the mortality at 400 ppm [11] of the same compound?
A: The mortality at 400 ppm was > 80%.

Q: And the mortality at 400 ppm [8]?
A: Its mortality at 400 ppm is > 80%.

Q: Which results are given for `CON1CCC2(CC1)C(O)=C(c1c(C)cc(C)cc1C)C(=O)N2O` [P2.4, 1,4-Dihydroxy-8-methoxy-3-(2,4,6-trimethyl-phenyl)-1,8-diaza-spiro[4.5]dec-3-en-2-one]?
A: pest or weed control at 200 ppm [1]: > 80%; mortality at 400 ppm [3]: > 80%; mortality at 25 ppm [4]: > 80%; mortality at 400 ppm [5]: > 80%; mortality at 400 ppm [7]: > 80%; mortality at 400 ppm [11]: > 80%; mortality at 400 ppm [8]: > 80%

Q: Which mortality at 400 ppm [13] does the source give for `CON1CCC2(CC1)C(O)=C(c1c(C)cc(C)cc1C)C(=O)N2OC` [P2.7] here?
A: The mortality at 400 ppm was > 80%.

Q: What about the pest or weed control at 200 ppm [1] of the same compound?
A: The pest or weed control at 200 ppm was > 80%.

Q: What about the mortality at 400 ppm [2] of the same compound?
A: The mortality at 400 ppm was > 80%.

Q: What about the mortality at 400 ppm [3] of the same compound?
A: The mortality at 400 ppm was > 80%.

Q: What about the mortality at 25 ppm [4] of the same compound?
A: The mortality at 25 ppm was > 80%.

Q: What about the mortality at 400 ppm [5] of the same compound?
A: Its mortality at 400 ppm is > 80%.

Q: What about the mortality at 400 ppm [7] of the same compound?
A: Its mortality at 400 ppm is > 80%.

Q: What about the mortality at 200 ppm [9] of the same compound?
A: Its mortality at 200 ppm is ≥ 80%.

Q: What about the pest or weed control at 200 ppm [12] of the same compound?
A: Its pest or weed control at 200 ppm is > 80%.

Q: And the mortality at 400 ppm [10]?
A: Its mortality at 400 ppm is > 80%.

Q: With `C#CCON1C(=O)C(c2c(C)cc(C)cc2C)=C(O)C12CCN(OC)CC2` [P2.8, 4-Hydroxy-8-methoxy-1-prop-2-ynyloxy-3-(2,4,6-trimethyl-phenyl)-1,8-diaza-spiro[4.5]dec-3-en-2-one] as the compound, how does the pest or weed control at 200 ppm [1] read?
A: The pest or weed control at 200 ppm was > 80%.

Q: What about the mortality at 400 ppm [3] of the same compound?
A: The mortality at 400 ppm was > 80%.

Q: And the mortality at 25 ppm [4]?
A: Its mortality at 25 ppm is > 80%.

Q: And the mortality at 400 ppm [5]?
A: The mortality at 400 ppm was > 80%.

Q: What about the mortality at 400 ppm [6] of the same compound?
A: Its mortality at 400 ppm is > 80%.

Q: And the mortality at 400 ppm [7]?
A: The mortality at 400 ppm was > 80%.

Q: And the mortality at 400 ppm [11]?
A: The mortality at 400 ppm was > 80%.

Q: And the mortality at 200 ppm [9]?
A: Its mortality at 200 ppm is ≥ 80%.

Q: What about the pest or weed control at 200 ppm [12] of the same compound?
A: Its pest or weed control at 200 ppm is > 80%.

Q: What about the mortality at 400 ppm [10] of the same compound?
A: Its mortality at 400 ppm is > 80%.

Q: How did the mortality at 400 ppm [13] turn out when `COCON1C(=O)C(c2c(C)cc(Br)cc2C)=C(O)C12CCN(OC)CC2` [P2.14, 3-(4-bromo-2,6-dimethyl-phenyl)-4-hydroxy-8-methoxy-1-methoxymethoxy-1,8-diaza-spiro[4.5]dec-3-en-2-one] was run?
A: The mortality at 400 ppm was > 80%.

Q: What about the pest or weed control at 200 ppm [1] of the same compound?
A: Its pest or weed control at 200 ppm is > 80%.

Q: And the mortality at 400 ppm [3]?
A: The mortality at 400 ppm was > 80%.

Q: What about the mortality at 25 ppm [4] of the same compound?
A: The mortality at 25 ppm was > 80%.

Q: What about the mortality at 400 ppm [5] of the same compound?
A: The mortality at 400 ppm was > 80%.

Q: And the mortality at 400 ppm [6]?
A: Its mortality at 400 ppm is > 80%.

Q: What about the mortality at 400 ppm [7] of the same compound?
A: Its mortality at 400 ppm is > 80%.

Q: And the mortality at 400 ppm [11]?
A: The mortality at 400 ppm was > 80%.

Q: What about the pest or weed control at 200 ppm [12] of the same compound?
A: Its pest or weed control at 200 ppm is > 80%.

Q: What does the source list for `CON1CCC2(CC1)C(O)=C(c1c(C)cc(C)cc1C)C(=O)N2OC1CCCO1` (centres unmarked) [P2.18, 4-Hydroxy-8-methoxy-1-(tetrahydro-furan-2-yloxy)-3-(2,4,6-trimethyl-phenyl)-1,8-diaza-spiro[4.5]dec-3-en-2-one]?
A: mortality at 400 ppm [13]: > 80%; pest or weed control at 200 ppm [1]: > 80%; mortality at 400 ppm [3]: > 80%; mortality at 25 ppm [4]: > 80%; mortality at 400 ppm [5]: > 80%; mortality at 400 ppm [6]: > 80%; mortality at 400 ppm [7]: > 80%; mortality at 400 ppm [11]: > 80%; mortality at 200 ppm [9]: ≥ 80%; pest or weed control at 200 ppm [12]: > 80%; mortality at 400 ppm [10]: > 80%

Q: For `CON1CCC2(CC1)C(O)=C(c1cc(C)c(C)cc1Cl)C(=O)N2OC1CCCO1` (centres unmarked) [P2.63], which mortality at 400 ppm [8] is on record?
A: Its mortality at 400 ppm is > 80%.

Q: And the mortality at 200 ppm [9]?
A: Its mortality at 200 ppm is ≥ 80%.
